Test results taken from article PMC11597817, “Modulation of Multispecific Transporters by Uncaria tomentosa Extract and Its Major Phytoconstituents” (Pharmaceutics, 2024).
Read-outs that look alike come from different tables or passages of the source.

Legend:
[1] = test system: C33A; assay: Antiproliferative MTT assay; assay type: cell-based, human; details: 30 μM pure natural product, 72 h
Protocol: (§1) For the determination of the antiproliferative properties of the prepared extract and selected alkaloids (isopteropodine, mitraphylline, and uncarine D), an MTT assay was applied on our […] cell panel (see Table S4). […] All were maintained in a minimal essential medium completed with 10% fetal bovine serum, 1% non-essential amino acids, and 1% penicillin–streptomycin at 37 °C in a humidified atmosphere containing 5% CO2. All cell lines were purchased from the European Collection of Cell Cultures (Salisbury, UK), except for SiHa and C33A, which were from the American Tissue Culture Collection, LGC Standards GmbH (Wesel, Germany). Cell culture media and supplements were obtained from Lonza Group Ltd. (Basel, Switzerland). Cells were seeded into 96-well plates (C33A 10,000/well, all others 5000/well); after overnight incubation, the test substances were added and incubated for another 72 h under cell-culturing conditions. Uncaria tomentosa extract and the alkaloids were tested in the 1–90 μg/mL and 1–30 μM ranges, respectively. Finally, 20 μL of 5 mg/mL MTT solution was added to each well and incubated for 4 h; the medium was discarded, and the precipitated formazan crystals were dissolved in DMSO for 60 min with shaking. The absorbance was determined using a microplate reader (SPECTROstar Nano, BMG Labtech GmbH). Two independent experiments were performed with five parallels for each condition. Cisplatin, a clinically used anticancer agent (Ebewe GmbH, Unterach, Austria), was included as a reference compound. Calculations were conducted using the GraphPad Prism 10.0 software (GraphPad Software Inc., San Diego, CA, USA).
(§2) Table S4 – Antiproliferative properties of Uncaria tomentosa extract, three natural products (isopteropodine, mitraphylline, and uncarine D) and the
(§3) reference agent cisplatin.
(§4) Cell line Uncaria tomentosa isopteropodine mitraphylline uncarine D [95% confidence
(§5) 1: The highest applied concentration was 90 μg/mL and 30 μM for the extract and the pure natural products, respectively.
(§6) 2: Inhibitions less than 20% compared to the untreated control were regarded as negligible and were not given numerically.

[2] = test system: HeLa; assay: Antiproliferative MTT assay; assay type: cell-based, human; details: 30 μM pure natural product, 72 h
Protocol: as §1, §2, §3, §4, §5, §6

[3] = test system: HEK293-Mock; assay: Antiproliferative MTT assay; assay type: cell-based, human; details: 30 μM pure natural product, 72 h
Protocol: as §1, §2, §3, §4, §5, §6

[4] = test system: T47D; assay: Antiproliferative MTT assay; assay type: cell-based, human; details: 30 μM pure natural product, 72 h
Protocol: as §1, §2, §3, §4, §5, §6

[5] = test system: A2780; assay: Antiproliferative MTT assay; assay type: cell-based, human; details: 30 μM pure natural product, 72 h
Protocol: as §1, §2, §3, §4, §5, §6

[6] = test system: MCF7; assay: Antiproliferative MTT assay; assay type: cell-based, human; details: 30 μM pure natural product, 72 h
Protocol: as §1, §2, §3, §4, §5, §6

[7] = test system: SiHa; assay: Antiproliferative MTT assay; assay type: cell-based, human; details: 30 μM pure natural product, 72 h
Protocol: as §1, §2, §3, §4, §5, §6

[8] = biological target: T1, MDR1 (Homo sapiens, UniProt P08183); assay: Vesicular transport inhibition assay, MDR1 membrane vesicles; assay type: biochemical; details: for Igut/IC50 ratio: MDR1, Igut = dose/250 mL, 500 mg dose of UT extract, ICH M12 cut-off 10; for IC50: oxindole alkaloids, substrate NMQ, read-out: IC50 (95% CI of IC50)
T1 construct: The cDNA encoding respective transporters were synthetized and cloned by GenScript; host or cells: HEK293 (lentiviral transduction), membrane vesicles
T1 sequence (P08183 whole entry): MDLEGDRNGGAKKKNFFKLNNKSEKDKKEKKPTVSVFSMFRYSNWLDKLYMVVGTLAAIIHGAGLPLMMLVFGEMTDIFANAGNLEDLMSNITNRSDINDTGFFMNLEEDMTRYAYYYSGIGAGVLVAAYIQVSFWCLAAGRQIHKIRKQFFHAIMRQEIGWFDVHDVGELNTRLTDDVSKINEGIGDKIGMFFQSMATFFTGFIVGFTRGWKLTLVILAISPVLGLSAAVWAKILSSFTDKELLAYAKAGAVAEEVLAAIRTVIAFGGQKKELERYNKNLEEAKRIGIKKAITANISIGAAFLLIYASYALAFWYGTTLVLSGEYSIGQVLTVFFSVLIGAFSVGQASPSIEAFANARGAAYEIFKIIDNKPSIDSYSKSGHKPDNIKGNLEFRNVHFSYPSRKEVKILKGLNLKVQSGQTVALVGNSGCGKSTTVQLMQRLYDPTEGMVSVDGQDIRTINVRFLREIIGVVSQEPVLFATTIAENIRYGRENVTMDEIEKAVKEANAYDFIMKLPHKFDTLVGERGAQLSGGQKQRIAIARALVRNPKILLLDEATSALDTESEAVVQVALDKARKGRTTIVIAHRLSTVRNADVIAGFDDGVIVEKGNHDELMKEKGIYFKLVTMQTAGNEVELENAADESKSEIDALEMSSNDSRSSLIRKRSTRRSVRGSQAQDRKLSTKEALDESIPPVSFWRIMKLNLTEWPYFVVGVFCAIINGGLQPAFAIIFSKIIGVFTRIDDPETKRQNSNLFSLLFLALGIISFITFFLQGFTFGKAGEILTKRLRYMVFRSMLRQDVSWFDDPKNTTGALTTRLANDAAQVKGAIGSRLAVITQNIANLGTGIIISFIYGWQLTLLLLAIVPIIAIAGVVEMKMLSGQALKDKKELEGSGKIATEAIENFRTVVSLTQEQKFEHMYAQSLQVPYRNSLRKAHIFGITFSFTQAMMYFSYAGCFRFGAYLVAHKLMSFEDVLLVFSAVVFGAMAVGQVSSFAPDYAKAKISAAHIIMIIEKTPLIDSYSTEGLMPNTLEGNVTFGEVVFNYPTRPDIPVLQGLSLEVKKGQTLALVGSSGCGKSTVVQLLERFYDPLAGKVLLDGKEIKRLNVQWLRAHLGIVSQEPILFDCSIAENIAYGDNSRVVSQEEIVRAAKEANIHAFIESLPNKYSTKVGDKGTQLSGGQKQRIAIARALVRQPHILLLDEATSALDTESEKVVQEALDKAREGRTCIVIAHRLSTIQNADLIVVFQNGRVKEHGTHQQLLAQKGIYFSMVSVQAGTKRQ
Description: The human embryonic kidney 293 (HEK293) cell line was purchased from Invitrogen/ThermoFisher (Waltham, MA, USA). Madin–Darby canine kidney II (MDCKII) wild type cells were obtained from the European Collection of Authenticated Cell Cultures (ECACC catalog no. 00062107). HEK293 cells overexpressing the human uptake OATP1B1 (NCBI Reference Sequence: NM_006446.4), OATP1B3 (NM_019844), OATP2B1 (NM_007256), OATP1A2 (NM_134431), OAT1-3 (BC033682.1; NM_006672.3; BC022387), OCT1-3 (BC126364.1; NM_003058; NM_021977), OCTN1 (NM_003059.3), NTCP (NM_003049.3), MATE1 (NM_018242.3), MATE2K (NM_001099646.2), ENT4 (NM_001040661.1), SGLT2 (AJ133127.1), ASCT1/2 (NM_003038.5; NM_005628.3), LAT1/2 (NM_003486.6; NM_012244.4), and THTR1/2 (NM_006996; NM_025243) and mock and human efflux BCRP (NM_004827.2), BSEP (NM_003742.2), MDR1 (NM_000927.4), and MRP1-5 (NM_004996; NM_000392.4; BC137347.1; NM_005845.4; NM_005688.2) transporters as well as MDCKII overexpressing human ENT1/2 (NM_001078177; NM_001532.2) and URAT1 (BC053348) transporters were created by lentiviral transduction. The cDNA encoding respective transporters were synthetized and cloned by GenScript (Piscataway, NJ, USA). The production of lentivirus supernatants, the transduction of the cells, cloning, functional characterization, and validation were performed by Charles River Laboratories Hungary Kft. (Budapest, Hungary).
Membrane vesicles were prepared from ABC transporter-overexpressing HEK293 cells by Charles River Laboratories Hungary Kft. as described previously in detail. Vesicles were frozen in liquid nitrogen and stored at −80 °C.
Vesicular transport inhibition assays were performed using a rapid filtration technique. In brief, the appropriate amount of the protein of each membrane vesicle was mixed with either the extract or isopteropodine, mitraphylline, or uncarine D at one concentration or with their half dilution series from 150 µg/mL or from 100 µM, the suitable transporter substrate, and the assay buffer on ice. Reaction mixtures were preincubated for 15 min at 37 °C with shaking at 250 rpm. Following preincubation, 4 mM Mg-ATP or AMP was added and incubated according to Table S3. Vesicular transport was terminated by adding an ice-cold washing buffer, and the reaction mix was transferred to a MSFBN6B10 filter plate (Merck) for filtration. The filter plates were then dried at 40 °C for 4 h, and radiolabeled substrates retained in the vesicles were detected by liquid scintillation counting as described above. For fluorescent substrates, accumulation was measured with a Clariostar^plus microplate reader (BMG Labtech GmbH, Ortenberg, Germany).
The transporter-mediated uptake and ATP-dependent transport were determined by subtracting the activity of the control cell/transporter abundant-membrane in the presence of AMP from the activity of the transporter-overexpressing cell/transporter-abundant membrane in the presence of ATP. The relative transporter-specific accumulation was expressed as the percent of DMSO activity. The results were presented as the mean ± SEM from 3 parallels. More than a 20% reduction in transport activity was considered as inhibition. For the IC50 determination, dose–response curves were fitted using a 4-parameter nonlinear model in GraphPad Prism version 9.0. Confidence intervals (CIs) of 95% were also determined.
Table S3 – Vesicular transport inhibition assay details.
These parameters were set during previous validations. TC: taurocholic acid, E3S: estrone 3 -sulfate,
NMQ: N-methyl-quinidine, E217βG: β-Estradiol 17-(β-D-glucuronide), DHEAS:
Dehydroepiandrosterone sulfate, CDCF: 5(6)-Carboxy-2',7-dichlorofluorescein B.
Parental Transporter Incubation Substrate Substrate µg Incubation
cell time (min) concentration membrane/ temperature

Row | Structure (SMILES) | Cell growth inhibition at the highest concentration (% ± SEM) [1] [%] | Cell growth inhibition at the highest concentration (% ± SEM) [2] [%] | Cell growth inhibition at the highest concentration (% ± SEM) [3] [%] | Cell growth inhibition at the highest concentration (% ± SEM) [4] [%] | Cell growth inhibition at the highest concentration (% ± SEM) [5] [%] | Cell growth inhibition at the highest concentration (% ± SEM) [6] [%] | Cell growth inhibition at the highest concentration (% ± SEM) [7] [%] | inhibitory effect on transporter-specific transport ([8]; 100 µM alkaloid) | Igut/IC50 ratio [8] | Igut/IC50 ratio ([8]; listed as Isopteropodine) | IC50 [8] [µM] | transporter-mediated substrate accumulation ([8]; in the presence of the alkaloid (100 µM, Figure 4)) | IC50 ([8]; listed as Mitraphylline) [µM]
1 | COC(=O)C1=CO[C@@H](C)[C@@H]2CN3CC[C@@]4(C(=O)Nc5ccccc54)[C@@H]3C[C@H]12 [isopteropodine] | < 20 | < 20 | < 20 | < 20 | < 20 | < 20 | 27.38 ± 2.72 | significantly inhibited | < 10 | 0.82 | 28.2 |  | 
2 | COC(=O)C1=CO[C@@H](C)[C@H]2CN3CC[C@]4(C(=O)Nc5ccccc54)[C@@H]3C[C@H]12 [mitraphylline] | < 20 | < 20 | < 20 | < 20 | < 20 | < 20 | 26.22 ± 1.12 |  | < 10 |  | 28.3 | below 50% | 28.3
